Entries after “also recorded” stand apart in the source; their conditions may differ.
Tests used:
soybean root cells = assay type: cell-based; settings: for stimulation of Avr1b(N)-GFP uptake into soybean roots: after 9 hr
Avr1b(N)-GFP = assay type: binding, Phytophthora sojae
AvrL567(N)-GFP = assay type: binding, Melampsora lini
soybean leaf cells = assay type: cell-based

Compound: O=P(O)(O)O[C@@H]1C(O)[C@H](OP(=O)(O)O)[C@@H](O)C(O)[C@H]1O (stereo partly drawn) [1,3-IP2, Inositol 1,3 diphosphate]
- inhibition of entry of Avr2-GFP into soybean root cells (soybean root cells): inhibited
- inhibition of entry of AvrLm6-GFP into soybean root cells (soybean root cells): inhibited

Compound: O=P(O)(O)OC1[C@@H](O)[C@H](O)C(OP(=O)(O)O)[C@H](O)[C@@H]1O (stereo partly drawn) [IP2, Inositol-1,4-diphosphate]
- inhibition of binding of Avr1b(N)-GFP to PI-4-P-containing liposomes (Avr1b(N)-GFP): inhibited binding
- inhibition of binding of AvrL567(N)-GFP to PI-4-P-containing liposomes (AvrL567(N)-GFP): completely block binding
- inhibition of entry of Avr2-GFP into soybean root cells (soybean root cells): inhibited
- inhibition of entry of AvrLm6-GFP into soybean root cells (soybean root cells): inhibited
- inhibition of uptake/entry of Arg9-GFP into soybean root cells (soybean root cells): completely unaffected
- inhibition of uptake/entry of Avr1b(N)-GFP into soybean root cells (soybean root cells): almost completely blocked
- inhibition of uptake/entry of AvrL567(N)-GFP into soybean root cells (soybean root cells): almost completely blocked

Compound: CCCCCCCC(=O)OC[C@H](COP(=O)(O)OC1[C@H](O)[C@H](O)C(OP(=O)(O)O)[C@H](O)[C@H]1O)OC(=O)CCCCCCC (stereo partly drawn) [di-octanoyl-PI-4-P]
- promotion of uptake of Avr1b(N)-GFP and AvrL567(N)-GFP proteins containing alanine substitutions in the RXLR and dEER motifs (soybean root cells): did not promote the uptake
- stimulation of Arg9-GFP uptake in soybean root cells (soybean root cells): does not stimulate uptake
- stimulation of AvrL567(N)-GFP uptake into soybean roots (soybean root cells): strongly stimulated
- stimulation of Avr1b(N)-GFP uptake into soybean roots (soybean root cells): strong stimulation; also recorded: stimulated

Compound: AAAA
- ablation (soybean leaf cells): 0

Compound: Arg9
- Avr1b function / cell re-entry in particle bombardment assay (reduction of GUS-positive blue spots with Rps1b) (soybean leaf cells): could functionally replace the RXLR2 motif

Compound: phosphatidyl choline [PC]
- stimulation of Avr1b(N)-GFP uptake into soybean roots (soybean root cells): did not stimulate uptake

Compound: phosphatidyl ethanolamine [PE]
- stimulation of Avr1b(N)-GFP uptake into soybean roots (soybean root cells): did not stimulate uptake

Compound: phosphatidyl inositol [PI]
- stimulation of Avr1b(N)-GFP uptake into soybean roots (soybean root cells): did not stimulate uptake

Reference: patent US20140331365A1 (priority 2008, published 2014)
